Laboratory results from patent publication US6572880B2, “Methods and transdermal compositions for pain relief” (priority 1996, dated 2003).
“Also recorded” adds a separate entry of the source. Counter-ions that a name gives are not always drawn.

How the values were obtained:
[1] = cited from earlier work
[2] = blood serum; cited from earlier work
[3] = in vivo
Method: A dosage of 40 mg per day was self-administered by a patient by application to the skin, for a period of at least 1 hour.
Sertraline (Zoloft) gel was prepared, according to the procedures of example 9. A dosage of 100 mg per day was self-administered by a patient by application to the skin, for a period of at least 1 hour.
A dosage of 20 mg per day was self-administered by a patient by application to the skin, for a period of at least 1 hour.
Carbamazepine (Tegretol) gel was prepared, according to the procedures of example 4. A dosage of 400 mg per day was self-administered by a patient by application to the skin, for a period of at least 1 hour.
(§1) Carbamazepine (Tegretol) gel was prepared, according to the procedures of example 4. A dosage of 200 mg per day was self-administered by a patient by application to the skin, for a period of at least 1 hour.
Sertraline (Zoloft) gel was prepared, according to the procedures of example 9. A dosage of 50 mg per day was self-administered by a patient by application to the skin, for a period of at least 1 hour.
as §1
A dosage of 100 mg per day was selfadministered by a patient by application to the skin, for a period of at least 1 hour.
A dosage of 80-160 mg per day was self administered by a person by application to the skin, for a period of at least 1 hour. […] The dosage was then increased to 160 mg per day and administered by the same method.
A dosage of 80-160 mg/day was self administered by a person by application to the skin, for a period of at least 1 hour. […] The dosage was then increased to 160 mg per day and administered by the same method.
A dosage of 500-1000 mg was self administered by two male patients. Administration was by application to the skin, for a period of at least one hour.

[4] = skin irritation and side effects reported on transdermal administration; format: in vivo, human; conditions: for overall assessment of side effects when administered transdermally: conclusion from the patient results
Method: Preferably, a gel preparation is applied to the skin at the site or sites of pain. Patients can be evaluated by means of a structured evaluation form, e.g., completed at a frequency of at least one time per week. Evaluation of patients are for the present symptoms as well as any side effects from currently administered medications. This makes it possible to note changes on an ongoing basis.
Patients in the examples above were evaluated by means of a structured evaluation form depicted in FIG. 1, which was completed at a frequency of at least one time per week for each patient receiving transdermal medication according to the present invention. The patients were evaluated both for all present psychiatric symptoms as well as any side effects from currently-administered medications.

[5] = patient-reported pain relief after transdermal application to site of pain; format: in vivo, human; conditions: for overall assessment of pain relief when administered transdermally: conclusion from the patient results
Source text: Compositions according the examples 45 through 47, 53, 55 were transdermally applied to numerous patients, for the purpose of treating pain including as described in other examples herein, with the results summarized in Table I below.

[6] = summary of Table I, best result per patient

Compound | solubility in water [1] | typical reference levels [2] | transdermal absorption as judged from blood level [3] | overall assessment of side effects when administered transdermally [4] | overall assessment of pain relief when administered transdermally [5] | other results
CN[C@H]1CC[C@@H](c2ccc(Cl)c(Cl)c2)c2ccccc21 [Sertraline hydrochloride] | slightly soluble | 30 to 200 ng/mL | do not appear to be absorbed well or reliably |  |  | solubility in ethanol [1]: sparingly soluble; solubility in isopropyl alcohol [1]: slightly soluble
Fc1ccc([C@@H]2CCNC[C@H]2COc2ccc3c(c2)OCO3)cc1 [Paroxetine hydrochloride] |  | 49 ± 26 ng/mL |  |  |  | 
CCCC(CCC)C(=O)O [Valproic acid] |  |  | do not appear to be absorbed well or reliably |  |  | typical therapeutic levels / therapeutic reference range [2]: 50 to 150 µg/mL; skin irritation ([4]; application to the skin): appears to cause skin irritation in some patients
NCC1(CC(=O)O)CCCCC1 [Gabapentin] |  |  |  | free of side effects |  | 
COc1ccccc1OCC(O)CO (centres unmarked) [Guaifenesin] |  |  |  |  | benefit as an adjunctive treatment, of painful spasticity | 
CN(C)CCC=C1c2ccccc2CCc2ccccc21 [amitriptyline] |  |  |  |  | limited pain relief | 
CN(C)CCC=C1c2ccccc2COc2ccccc21 [doxepin] |  |  |  | substantially free of side effects | effective pain relief medication | overall assessment of pain relief when administered transdermally ([5]; listed as Doxepin): about three times the positive response rate; also recorded: substantially more effective than amitriptyline; percent reported pain relief: Major [5, 6]: 23.1%; percent reported pain relief: Mild [5, 6]: 7.7%; percent reported pain relief: Mild-moderate [5, 6]: 7.7%; percent reported pain relief: Total [5, 6]: 7.7%; percent reported pain relief: moderate [5, 6]: 53.8%
NC(=O)N1c2ccccc2C=Cc2ccccc21 [Carbamazepine] | practically insoluble |  | good absorption | appears to cause a rash in at least some patients | positive effects | solubility in alcohol and in acetone [1]: soluble; typical therapeutic levels / therapeutic reference range [2]: 4 to 10 µg/mL
CC(NC(C)(C)C)C(=O)c1cccc(Cl)c1 (centres unmarked) [Buproprion] | highly soluble |  | poor or equivocal absorptions and results |  |  | 
CNCCC(Oc1ccc(C(F)(F)F)cc1)c1ccccc1 (centres unmarked) [Fluoxetine hydrochloride] |  | 50 to 480 ng/mL |  |  |  | 
